Results taken from patent US4474775A, “Pyrazol-4-yl phosphates and insecticidal and acaricidal use” (priority 1979, dated 1984).

Assays:
[1] = test system: Spodoptera litura; experiment: Effectiveness against Spodoptera litura (Testing Example 2); type: in vivo; conditions: second-instar larvae, 500 ppm spray on soybean, 28° C., 24 hours
Method: Testing Example 2: Effectiveness against Spodoptera litura
Twenty milliliters of a 500 ppm, water-diluted solution (with Dyne® Takeda Chem. Ind. Ltd., spreading agent, as diluted 3000-fold) of the test compound (the emulsifiable concentrate of Example 6) was sprayed on grown seedlings (10 days after germination) of soybean plant water-cultured in a polyethylene cup by the use of a spray gun (nozzle pressure of 1 kg/cm^2 gauge) in a spraying chamber. 2 hours after spraying, two main leaves of soybean plant were cut off and were placed into two cups (6 cm in diameter and 4 cm in depth), respectively, and ten second-instar larvae of Spodoptera litura were liberated. The cups were left in the room (28° C.) for 24 hours, and the dead larvae were counted.

[2] = test system: Tetranychus urticae; experiment: Effectiveness against Tetranychus urticae (Testing Example 4); type: in vivo; conditions: decrease rate grade, 500 ppm spray on kidney bean plant; for Efficacy grading, 2nd day: 2nd day after spraying; for Efficacy grading, 7th day: 7th day after spraying
Method: Testing Example 4: Effectiveness against Tetranychus urticae
A test compound was processed into an emulsifiable concentrate in accordance with the formulation of Example 6, and diluted with water (with Dyne®, spreading agent, as diluted 3000-fold) to prepare a 500 ppm aqueous solution. Ten female adults of Tetranychus urticae) were infected on the seedling of a kidney bean plant water-cultured in a polyethylene cup, and the cups were placed in a glass chamber (28° C.) for 24 hours, followed by spraying 20 ml of the aqueous solution on the kidney bean plant. After the sprayed cup was placed again in the glass chamber, the number of the adults and larvae living on the leaves was counted on the 2nd and 7th days after spraying. The test was repeated twice, and the test results are tabulated in Table 5 in terms of the efficacy grading as determined by calculating a decrease rate by the following equation:
Decrease rate (%)=[(number of mites tested-number of larvae living on the day of inspection)/(number of mites tested)]×100

[3] = Oral acute toxicity in mice (Toxicological Test); conditions: mouse, in vivo, five-week aged ddY-SLC strained male mice
Excerpt: Below tabulated are the oral acute toxicity values obtained with five-week aged, ddY-SLC strained male mice: […]

[4] = test system: Laodelphax striatellus; experiment: Effectiveness against Laodelphax striatellus, third-instar larvae, root dip (Testing Example 1 (a)); type: in vivo; conditions: 40 ppm emulsifiable concentrate dilution, root dip 2 hours, 28° C., 24 hours, read-out: Mortality (I)
Method: (§1) Testing Example 1: Effectiveness against Laodelphax striatellus
(a) A test compound was processed into an emulsifiable concentrate in accordance with the formulation of Example 6, followed by diluting with water to prepare a treating solution of a 40 ppm concentration. 2.5 ml of the treating solution was placed into a test tube (with 1.7 cm of diameter, 4 cm deep), in which three seedlings of a paddy-rice plant (on the 7th day after germination) were allowed to stand so their root portions were dipped into the solution for 2 hours. The seedlings were then transferred into a test tube having 1 ml water placed in the bottom, and ten third-instar larvae of Laodelphax striatellus were released. After allowing the test tube to stand in the room (28° C.) for 24 hours, the dead larvae were counted. The test is repeated twice, and the test results are tabulated, in terms of mortality, in Table 2 (I).

[5] = test system: Laodelphax striatellus; experiment: Effectiveness against Laodelphax striatellus, adults, dust on paddy-rice plant (Testing Example 1 (b)); type: in vivo; conditions: small brown planthopper, adults on dusted rice, 24 h
Method: as §1
(b) A test compound was processed into a dust preparation in accordance with the formulation of Example 8, and […] of the preparation was dusted on the potted paddy-rice plant (1/5,000 a) by the Berger Duster method. After dusting, leaves (15 cm long) of the paddy rice were cut off and were placed in a test tube containing 1 ml of water in the bottom, and ten adults of Laodelphax striatellus were released therein. After allowing the test tube to stand in the room (28° C.) for 24 hours, the dead insects were counted.

| SMILES | mortality at 500 ppm [1] | Efficacy grading, 2nd day [2] | Efficacy grading, 7th day [2] | LD50 [3] | mortality at 40 µg/mL [4] | Mortality (II) [5] |
| --- | --- | --- | --- | --- | --- | --- |
| CCCSP(=S)(OCC)Oc1cnn(-c2ccccc2)c1 (stereo not shown) [Compound No. 5, O-ethyl-O-(1-phenylpyrazol-4-yl)-S-n-propyl phosphorothiolothionate] | 100% | 3 (Not less than 90) | 3 (Not less than 90) | > 300 mg/kg |  |  |
| CCCSP(=O)(OCC)Oc1cnn(-c2ccc(Br)cc2)c1 (stereo not shown) [Compound No. 9] | 100% | 3 (Not less than 90) | 3 (Not less than 90) | > 300 mg/kg | 100% | 75% |
| CCCSP(=O)(OCC)Oc1cnn(-c2ccc(Cl)cc2)c1 (stereo not shown) [Compound No. 16, O-ethyl-O-[1-(4-chlorophenyl)pyrazol-4-yl]-S-n-propyl phosphorothiolate] | 100% | 3 (Not less than 90) | 3 (Not less than 90) | > 300 mg/kg | 97% | 75% |
| CCCSP(=S)(OCC)Oc1cnn(-c2ccc(Cl)cc2)c1 (stereo not shown) [Compound No. 17] | 100% | 3 (Not less than 90) | 3 (Not less than 90) | > 300 mg/kg | 100% | 35% |
| CCCOP(=S)(OCC)Oc1cn(-c2ccccc2)nc1C(=O)OCC (stereo not shown) [compound 6] |  |  |  | > 300 mg/kg | 97% | 70% |
| CCCSP(=O)(OCC)Oc1cn(-c2ccccc2)nc1C(=O)OCC (stereo not shown) [compound 7] | 100% | 3 (Not less than 90) | 3 (Not less than 90) | > 300 mg/kg |  |  |
| CCCSP(=S)(OCC)Oc1cn(-c2ccccc2)nc1C(=O)OCC (stereo not shown) [compound 8] | 100% | 3 (Not less than 90) | 0 (Not more than 20) | > 300 mg/kg |  |  |
| CCCSP(=S)(OCC)Oc1cnn(-c2ccc(Br)cc2)c1 (stereo not shown) [compound 10] | 100% | 3 (Not less than 90) | 3 (Not less than 90) | > 300 mg/kg |  |  |
| CCOP(=S)(OCC)Oc1cnn(-c2ccccc2Cl)c1 [compound 11] |  | 3 (Not less than 90) | 0 (Not more than 20) | > 300 mg/kg |  |  |
| CCCSP(=O)(OCC)Oc1cnn(-c2cccc(Cl)c2)c1 (stereo not shown) [compound 13] | 100% | 3 (Not less than 90) | 3 (Not less than 90) | > 300 mg/kg | 100% | 90% |
| CCCSP(=S)(OCC)Oc1cnn(-c2cccc(Cl)c2)c1 (stereo not shown) [compound 14] | 100% | 3 (Not less than 90) | 0 (Not more than 20) | > 300 mg/kg |  |  |
| CCOP(=S)(OCC)Oc1cnn(-c2ccc(Cl)cc2)c1 [compound 15] |  | 3 (Not less than 90) | 0 (Not more than 20) | > 300 mg/kg |  |  |
| CCCSP(=O)(OCC)Oc1cnn(-c2ccc(F)cc2)c1 (stereo not shown) [compound 18] | 100% | 3 (Not less than 90) | 3 (Not less than 90) | > 300 mg/kg | 100% | 100% |
| CCCSP(=S)(OCC)Oc1cnn(-c2ccc(F)cc2)c1 (stereo not shown) [compound 19] | 100% | 3 (Not less than 90) | 3 (Not less than 90) | > 300 mg/kg |  |  |
| CCCSP(=O)(OCC)Oc1cnn(-c2ccc(I)cc2)c1 (stereo not shown) [compound 20] | 100% | 3 (Not less than 90) | 3 (Not less than 90) | > 300 mg/kg | 100% | 65% |
| CCOP(=S)(OCC)Oc1cnn(-c2ccccc2C)c1 [compound 21] |  | 3 (Not less than 90) | 0 (Not more than 20) | > 300 mg/kg |  |  |

| SMILES | mortality at 500 ppm [1] | Efficacy grading, 2nd day [2] | Efficacy grading, 7th day [2] | LD50 [3] | mortality at 40 µg/mL [4] | Mortality (II) [5] |
| --- | --- | --- | --- | --- | --- | --- |
| CCCSP(=O)(OCC)Oc1cnn(-c2ccccc2C)c1 (stereo not shown) [compound 22] | 100% | 3 (Not less than 90) | 3 (Not less than 90) | ~300 mg/kg | 85% | 63% |
| CCCSP(=O)(OCC)Oc1cnn(-c2ccc(C)cc2)c1 (stereo not shown) [compound 23] | 100% | 3 (Not less than 90) | 3 (Not less than 90) | 50 to 300 mg/kg |  |  |
| CCCSP(=O)(OCC)Oc1cnn(-c2ccc(CCC)cc2)c1 (stereo not shown) [compound 24] | 100% | 3 (Not less than 90) | 3 (Not less than 90) | > 300 mg/kg | 85% | 50% |
| CCCSP(=O)(OCC)Oc1cnn(-c2ccc(SC)cc2)c1 (stereo not shown) [compound 26] | 100% |  |  | > 300 mg/kg |  |  |
| CCCSP(=O)(OCC)Oc1cnn(-c2cccc(C(F)(F)F)c2)c1 (stereo not shown) [compound 27] | 100% |  |  | 50 to 300 mg/kg |  |  |
| CCCSP(=S)(OCC)Oc1cnn(-c2cccc(C(F)(F)F)c2)c1 (stereo not shown) [compound 28] | 100% |  |  | > 300 mg/kg |  |  |
| CCCSP(=S)(OCC)Oc1cnn(-c2ccc(Cl)cc2Cl)c1 (stereo not shown) [compound 30] | 100% | 3 (Not less than 90) | 3 (Not less than 90) | > 300 mg/kg |  |  |
| CCCSP(=S)(OCC)Oc1cnn(-c2ccc(Cl)c(Cl)c2)c1 (stereo not shown) [compound 32] | 100% | 3 (Not less than 90) | 3 (Not less than 90) | > 300 mg/kg |  |  |
| CCCSP(=O)(OCC)Oc1cnn(-c2c(C)cccc2C)c1 (stereo not shown) [compound 36] | 100% | 3 (Not less than 90) | 3 (Not less than 90) | > 300 mg/kg |  |  |
| CCCSP(=O)(OCC)Oc1cnn(-c2ccc(Cl)cc2F)c1 (stereo not shown) [compound 37] | 100% | 3 (Not less than 90) | 3 (Not less than 90) | > 300 mg/kg | 100% | 90% |
| CCCSP(=O)(OCC)Oc1cnn(-c2ccc(Cl)cc2C)c1 (stereo not shown) [compound 38] | 100% | 3 (Not less than 90) | 3 (Not less than 90) | > 300 mg/kg |  |  |
| CCCSP(=O)(OCC)Oc1cnn(-c2cc([N+](=O)[O-])ccc2C)c1 (stereo not shown) [compound 39] | 100% |  |  | > 300 mg/kg |  |  |
| CCCSP(=S)(OCC)Oc1cnn(-c2cc([N+](=O)[O-])ccc2C)c1 (stereo not shown) [compound 40] | 100% |  |  | > 300 mg/kg |  |  |
| CCCSP(=O)(OCC)Oc1cnn(-c2ccc3c(c2)OCO3)c1 (stereo not shown) [compound 41] | 100% | 3 (Not less than 90) | 3 (Not less than 90) | 50 to 300 mg/kg |  |  |
| CCCSP(=O)(OCC)Oc1cnn(-c2cc(Cl)c(Cl)cc2Cl)c1 (stereo not shown) [compound 42] | 100% | 3 (Not less than 90) | 3 (Not less than 90) | > 300 mg/kg | 100% | 40% |
| CCCSP(=S)(OCC)Oc1cnn(-c2cc(Cl)c(Cl)cc2Cl)c1 (stereo not shown) [compound 43] | 100% | 3 (Not less than 90) | 3 (Not less than 90) | > 300 mg/kg | 85% | 40% |
